Measurements reported in patent publication US7342016B2, “Farnesyl protein transferase inhibitors as antitumor agents” (Schering Corporation, priority 2000, dated 2008).
Several values for one entry are separate records, joined by “and”; a condition that tells them apart may be missing. Equal entries are not always repeated.

What was measured:
Experiment in all cases: In vivo anti-tumor study, s.c. tumor in athymic nu/nu female mice, percent inhibition of tumor growth
[1] = test system: mouse fibroblasts transformed with H-Ras; settings: po, x2
Protocol: (§1) Various tumor cells (5×10^5 to 8×10^6) were innoculated subcutaneously into the flank of 5-6 week old athymic nu/nu female mice. Three tumor cell models were used: mouse fibroblasts transformed with H-Ras; HTB-177 human non small cell lung cancer cells or LOX human melanoma cells. Animals were treated with beta cyclodextran vehicle only or compounds in vehicle twice a day (BID) or once a day (QD) for 7 days per week for 1 (×1), 2 (×2) or 3 (×3) weeks. The percent inhibition of tumor growth relative to vehicle controls were determined by tumor measurements.

LOX human melanoma cells = settings: po, BID, x1
Protocol: as §1

[2] = test system: HTB-177 human non small cell lung cancer cells; settings: po, x3
Protocol: as §1

**Q.** Which results are given for `Cc1nccn1CC1=Cc2cccnc2C(N2CCN(C(=O)Nc3ccc(C#N)cc3)CC2)c2ccc(Cl)cc21` (stereo not shown) [(372)]?
**A.** Average % Tumor Inhibition ([1]; 6.6 MPK, BID): 19%; Average % Tumor Inhibition ([1]; 10 MPK, BID): 70%; Average % Tumor Inhibition ([1]; 20 MPK, BID): 59%; Average % Tumor Inhibition ([1]; 20 MPK, QD): 55%; Average % Tumor Inhibition ([1]; 40 MPK, BID): 92%; Average % Tumor Inhibition ([1]; 60 MPK, BID): 98%; Average % Tumor Inhibition ([1]; 80 MPK, QD): 91%; Average % Tumor Inhibition (LOX human melanoma cells; 15 MPK): 20.9%; Average % Tumor Inhibition (LOX human melanoma cells; 30 MPK): 54.8%; Average % Tumor Inhibition (LOX human melanoma cells; 60 MPK): 90.3%; Average % Tumor Inhibition ([2]; 20 MPK, BID): 43% and 47%; Average % Tumor Inhibition ([2]; 40 MPK, BID): 79%; Average % Tumor Inhibition ([2]; 40 MPK, QD): 11%; Average % Tumor Inhibition ([2]; 60 MPK, BID): 87%; Average % Tumor Inhibition ([2]; 80 MPK, BID): 96%; Average % Tumor Inhibition ([2]; 120 MPK, QD): 54%
